According to BindingDB's records for doi:10.1016/j.bmcl.2010.01.039 (Institute of Science and Technology, 2010):

Molecular target: T1, Receptor-type tyrosine-protein kinase FLT3 (Homo sapiens, UniProt P36888)
T1 sequence (P36888 whole entry): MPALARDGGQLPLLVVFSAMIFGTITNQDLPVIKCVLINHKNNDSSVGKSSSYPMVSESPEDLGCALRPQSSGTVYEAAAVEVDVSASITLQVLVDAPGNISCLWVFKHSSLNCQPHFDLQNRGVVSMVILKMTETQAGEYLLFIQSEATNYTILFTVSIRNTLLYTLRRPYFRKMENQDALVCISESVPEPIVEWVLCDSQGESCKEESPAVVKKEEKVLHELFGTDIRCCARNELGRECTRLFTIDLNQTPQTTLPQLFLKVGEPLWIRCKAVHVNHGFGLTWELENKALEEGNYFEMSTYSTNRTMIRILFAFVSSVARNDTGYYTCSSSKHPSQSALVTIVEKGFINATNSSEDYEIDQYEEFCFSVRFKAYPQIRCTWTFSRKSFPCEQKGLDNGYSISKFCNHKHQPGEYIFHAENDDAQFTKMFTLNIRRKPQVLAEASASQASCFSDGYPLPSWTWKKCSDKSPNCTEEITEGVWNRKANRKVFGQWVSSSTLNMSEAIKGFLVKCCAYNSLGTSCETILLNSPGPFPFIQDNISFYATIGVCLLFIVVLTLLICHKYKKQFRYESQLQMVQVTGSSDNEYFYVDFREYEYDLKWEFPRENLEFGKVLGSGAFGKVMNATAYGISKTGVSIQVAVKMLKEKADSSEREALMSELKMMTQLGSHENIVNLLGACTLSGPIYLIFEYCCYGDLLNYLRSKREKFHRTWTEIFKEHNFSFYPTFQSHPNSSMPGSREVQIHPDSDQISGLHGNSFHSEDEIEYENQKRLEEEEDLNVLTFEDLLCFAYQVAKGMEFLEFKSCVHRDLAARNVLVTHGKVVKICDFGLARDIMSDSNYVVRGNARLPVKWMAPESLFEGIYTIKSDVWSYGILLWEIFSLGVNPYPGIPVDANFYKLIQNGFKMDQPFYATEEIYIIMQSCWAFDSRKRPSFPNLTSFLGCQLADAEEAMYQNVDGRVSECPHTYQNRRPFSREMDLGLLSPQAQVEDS
Assay: Inhibition of FLT3 by HTRF assay

IC50 [µM] | Compound
> 10 | Cc1cc(Cl)cc2c1NC(=O)C2c1[nH]c2ccccc2c1N=O (centres undefined) [5'-Chloro-7'-methyl-1H,1'H-[2,3']biindolylidene-3,2'-dione 3-oxime]
> 10 | O=Nc1c(C2C(=O)Nc3ccc(OC(F)(F)F)cc32)[nH]c2ccccc12 (centres undefined) [5'-Trifluoromethoxy-1H,1'H-[2,3']biindolylidene-3,2'-dione 3-oxime]
> 10 | O=C1N=c2ccc([N+](=O)[O-])cc2=C1c1[nH]c2ccccc2c1O [(Z)-5'-Nitro-1H,1'H-[2,3']biindolylidene-3,2'-dione]
> 10 | O=Nc1c(C2C(=O)Nc3ccc([N+](=O)[O-])cc32)[nH]c2ccc(Br)cc12 (centres undefined) [(Z)-5-Bromo-5'-nitro-1H,1'H-[2,3']biindolylidene-3,2'-dione 3-oxime]
